Columns and labels:
tissue transglutaminase = target: T1, tissue transglutaminase (UniProt P08587); experiment: Inactivation of tissue transglutaminase; type: biochemical
T1 construct: Liver transglutaminase from guinea pig liver was isolated and partially purified; from tissue; host or cells: guinea pig liver
Description: Liver transglutaminase from guinea pig liver was isolated and partially purified according to the procedure outlined in "Methods of Enzymology", Vol. 113, pp. 358-375, with minor modifications. The 105,000×g supernatant from the 15,000×g supernatant of a crude homogenate of guinea pig liver, was chromatographed on DEAE-Sepharose CL-6B. Enzymatic activity was eluted with a 0-1.0M NaCl gradient in 5 mM TRIS, 2 mM EDTA pH 7.5 buffer. Fractions containing activity were pooled, dialyzed against 50 mM TRIS-HCl, 2 mM EDTA, pH 7.5 buffer and concentrated, when necessary, by Amicon Ultrafiltration (PM 10 filters).
The activity and inhibition of guinea pig liver transglutaminase was assayed by measurement of the rate of incorporation of hydroxylamine into simple glutaminyl peptide derivatives, preferably CBZ-(L)-Glutaminyl-Glycine (see Folk and Chung, "Methods in Enzymology", Vol. 113, pp. 359-361). […]
Prior to activity determination, guinea pig liver transglutaminase was activated anaerobically with 5 mM calcium chloride and 1 mM dithiothreitol at 25° C. […] The concentration of product formed after 10-25 minutes incubation was determined by quenching with 250 microliters of acidic ferric chloride reagent and measurement of the absorbance at 525 nm using a Gilford 2600 UV/VIS spectrophotometer. Typical uninhibited samples provided sufficient product for 0.5 absorbance units at 525 nm. […]

[1] = tested on: galactose-induced cataracts; experiment: Cataract therapy: galactose-induced cataracts; type: in vivo; conditions: oral route in the diet at 0.05%
human T-lymphocyte = experiment: Human T-lymphocyte transformation in vitro; type: cell-based; conditions: at 10^-6 in vitro
Source text: Transglutaminase inactivator, N-benzyloxycarbonyl-D,L-β-(3-bromo-4,5-dihydroisoxazol-5-yl)-alanine (4-(ethoxycarbonyl)phenyl)amide, inhibited human T-lymphocyte transformation at 10^-6 in vitro.

[2] = tested on: Nippostronglus braziliensis; experiment: In vitro assay against Nippostronglus braziliensis; type: cell-based; design: key: A compound is defined as active if (1) cast formation is reduced 50 percent or more or (2) viability and motility together are reduced 50 percent or more; conditions: 50 μg/ml, fourth larval stage (L4), incubated at 37° C. for seven days
Description: N-Benzyloxycarbonyl-D,L-β-(3-bromo-4,5-dihydroisoxazol-5-yl)-alanine benzylamide was active against Nippostronglus braziliensis in an in vitro assay.
Rats were inoculated with 5,000 to 6,000 N. braziliensis third stage larvae subcutaneously. Seventy-two hours later rats were sacrificed and the fourth stage larvae harvested. Each drug was tested at 50 μg/ml against the fourth larval stage (L4) of N. braziliensis at approximately 50 L4/well. This mixture was incubated at 37° C. for a total of seven days and then read for activity. Parameters used to determine drug activity are motility, percent viability, and percent of L4 able to molt to the adult (percent cast formation). A compound is defined as active if (1) cast formation is reduced 50 percent or more or (2) viability and motility together are reduced 50 percent or more.

Hymenolepsis nana = experiment: In vivo assay of anthelmintic activity, mixed helminth infection in mice; design: species or system Swiss-Webster mice; conditions: 1000 ppm in the food ad lib for 11 days from 24 hours post-infection, sacrificed on day 17
Description: (§1) Male, Swiss-Webster mice were challenged with a mixed helminth infection of Nematospiroides dubius and Hymenolepsis nana. Starting 24 hours post-infection (p.i.) mice were treated for 11 days ad lib with N-Benzyloxycarbonyl-D,L-β-(3-bromo-4,5-dihydroisoxazol-5-yl)-alanine benzylamide mixed in the food at 1000 ppm. Animals were sacrificed on day 17 to examine parasite burden in the intestine.

Nematospiroides dubius = experiment: as above; design: species or system Swiss-Webster mice; conditions: 1000 ppm in the food ad lib for 11 days from 24 hours post-infection, sacrificed on day 17
Description: as §1

transglutaminase = conditions: previously reported inhibitors; cited from earlier work

T1 sequence (P08587 whole entry): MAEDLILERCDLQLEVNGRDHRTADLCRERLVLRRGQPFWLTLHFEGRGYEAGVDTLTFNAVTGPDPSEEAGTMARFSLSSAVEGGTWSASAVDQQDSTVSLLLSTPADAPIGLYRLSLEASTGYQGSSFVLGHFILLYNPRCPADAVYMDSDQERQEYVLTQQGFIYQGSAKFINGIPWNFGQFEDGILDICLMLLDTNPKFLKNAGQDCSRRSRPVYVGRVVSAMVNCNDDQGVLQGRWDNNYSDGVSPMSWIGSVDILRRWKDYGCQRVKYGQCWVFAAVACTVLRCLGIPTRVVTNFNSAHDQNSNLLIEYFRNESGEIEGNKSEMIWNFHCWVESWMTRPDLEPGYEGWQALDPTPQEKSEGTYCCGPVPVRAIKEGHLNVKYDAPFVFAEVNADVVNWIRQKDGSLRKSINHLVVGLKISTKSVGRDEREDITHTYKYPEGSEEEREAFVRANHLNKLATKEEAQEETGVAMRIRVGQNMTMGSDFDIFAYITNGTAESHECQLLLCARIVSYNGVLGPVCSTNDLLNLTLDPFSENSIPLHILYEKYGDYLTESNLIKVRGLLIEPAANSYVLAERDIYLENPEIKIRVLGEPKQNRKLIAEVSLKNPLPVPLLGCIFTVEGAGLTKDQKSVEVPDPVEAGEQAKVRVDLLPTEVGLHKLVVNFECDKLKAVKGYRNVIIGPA

With `CCOC(=O)c1ccc(NC(=O)C(CC2CC(Br)=NO2)NC(=O)OCc2ccccc2)cc1` (racemic) [N-benzyloxycarbonyl-D,L-β-(3-bromo-4,5-dihydroisoxazol-5-yl)-alanine (4-(ethoxycarbonyl)phenyl)amide] the “inactivation of tissue transglutaminase” value (tissue transglutaminase) was “potent inactivator”, the “onset of galactose-induced cataracts” value [1] was “delayed the onset” and the “cytotoxicity associated with the inhibition of T-lymphocyte transformation” value (human T-lymphocyte) was “not associated with cytotoxicity”. The “inhibition of human T-lymphocyte transformation” value (human T-lymphocyte) was “inhibited”.

In the case of `O=C(NC(CC1CC(Br)=NO1)C(=O)NCc1ccccc1)OCc1ccccc1` (racemic) [N-Benzyloxycarbonyl-D,L-β-(3-bromo-4,5-dihydroisoxazol-5-yl)-alanine benzylamide], the “activity against Nippostronglus braziliensis (cast formation, viability and motility)” value [2] is reported as “active”, the “percent reduction of parasites in the intestine (Hymenolepsis nana)” value (Hymenolepsis nana) is reported as “significant percent reduction of parasites” and the “percent reduction of parasites in the intestine (Nematospiroides dubius)” value (Nematospiroides dubius) is reported as “significant percent reduction of parasites”.

In the case of `NCCSSCCN` [cystamine], the “concentration at which effective as transglutaminase inhibitor” value (transglutaminase) is listed as “greater than 10^-3 M” and the specificity for transglutaminases (transglutaminase) is listed as “lacks specificity”.
